In patent EP0904269B1, “3,4-DIARYL-2-HYDROXY-2,5-DIHYDROFURANS AS PRODRUGS TO COX-2 INHIBITORS” (Merck Frosst Canada & Co., priority 1995, dated 1997) one finds ED50 data, which are given here for eight compounds.

The assay relates to Rat Paw Edema. Put plainly: Rat paw edema assay (carrageenan-induced). To be noted: dose of prodrug, po, required to reduce edema formation by 50% as compared to the vehicle control. It is filed as in vivo, Male Sprague-Dawley rats. The procedure: Male Sprague-Dawley rats (150-200 g) are fasted overnight and are given, po, either vehicle (1% methocel or 5% Tween 80) or a test compound. One hr later, a line is drawn using a permanent marker at the level above the ankle in one hind paw to define the area of the paw to be monitored. The paw volume (V0) is measured using a plethysmometer (Ugo-Basile, Italy) based on the principle of water displacement. The animals are then injected subplantarly with 50 µl of 1% carrageenan solution in saline (FMC Corp, Maine) into the paw using an insulin syringe with a 25-gauge needle (i.e. 500 µg carrageenan per paw). Three hr later, the paw volume (V3) is measured and the increases in paw volume (V3 - VO) are calculated. The animals are sacrificed by CO2 asphyxiation and the absence or presence of stomach lesions scored. Data is compared with the vehicle-control values and percent inhibition calculated. All treatment groups are coded to eliminate observer bias.
Compounds of the present invention are prodrugs of inhibitors of COX-2 and are thereby useful in the treatment of COX-2 mediated diseases as enumerated above. The extent of conversion of these compounds to the active COX-2 inhibitors may be seen in the representative results shown below along with their antiinflammatory activity. The plasma levels indicated are the maximum rat plasma concentrations of the active COX-2 inhibitor observed when the rat was treated with a 20 mg/kg oral dose of the indicated prodrug. The ED50 values in the rat paw edema assay represent the dose of prodrug required to reduce edema formation by 50% as compared to the vehicle control.
Turning to `CS(=O)(=O)c1ccc(C2=C(c3ccccc3)C(O)CC2)cc1` (centres unmarked) [Example 13, 3-(4-(Methylsulfonyl)phenyl)-2-phenyl-2-cyclopenten-1-ol], the median effective dose (ED50) – broadly, the dose at which the effect has come halfway, by size or by number of responders – is 0.9 mg/kg. As to `CC1(C)OC(O)C(c2cc(F)cc(F)c2)=C1c1ccc(S(C)(=O)=O)cc1` (centres unmarked) [Example 2, 3-(3,5-Difluorophenyl)-5,5-dimethyl-2-hydroxy-4-(4-(methylsulfonyl)phenyl)-2,5-dihydrofuran], the ED50 amounted to 0.7 mg/kg. Turning to `CS(=O)(=O)c1ccc(C2=C(c3cccnc3)C(O)CC2)cc1` (centres unmarked) [Example 40, 3-(4-Methylsulfonylphenyl)-2-(3-pyridinyl)-2-cyclopenten-1-ol], the ED50 stood at 1.5 mg/kg.

Take `CC1(C)OC(O)C(c2cccc(F)c2)=C1c1ccc(S(C)(=O)=O)cc1` (centres unmarked) [Example 1, 5,5-Dimethyl-3-(3-fluorophenyl)-2-hydroxy-4-(4-methylsulfonylphenyl)-2.5-dihydrofuran]: the ED50 worked out at 2.5 mg/kg.

Turning to `CC1(C)OC(O)C(Oc2ccc(F)c(F)c2)=C1c1ccc(S(C)(=O)=O)cc1` (centres unmarked) [Example 10, 5.5-Dimethyl-3-(3,4-difluorophenoxy)-2-hydroxy-4-(4-(methylsulfonyl)phenyl)-2.5-dihydrofuran], the ED50 was determined as 0.09 mg/kg.

Regarding `CC(OC1=C(c2ccc(S(C)(=O)=O)cc2)C(C)(C)OC1O)C1CC1` (centres unmarked) [Example 44, 3-(1-Cyclopropylethoxy)-5,5-dimethyl-4-(4-methylsulfonylphenyl)-2,5-dihydrofuran-2-ol], the ED50 was 1.6 mg/kg. For `CC(C)OC1=C(c2ccc(S(C)(=O)=O)cc2)C(C)(C)OC1O` (centres unmarked) [Example 39, 3-Isopropoxy-5,5-dimethyl-4-(4-methylsulfonylphenyl)-2,5-dihydrofuran-2-ol], the ED50 turned out to be 2.7 mg/kg.

Regarding `CC1(C)OC(O)C(Oc2cccc(F)c2)=C1c1ccc(S(C)(=O)=O)cc1` (centres unmarked) [Example 9, 5.5-Dimethyl-3-(3-fluorophenoxy)-2-hydroxy-4-(4-(methylsulfonyl)phenyl)-2,5-dihydrofuran], the median effective dose (ED50) came to 1.7 mg/kg.
